Source: US6071950A, “N-substituted pyrrolidine derivatives and process for preparing the same” (Kyorin Pharmaceutical Co., Ltd., priority 1996, dated 2000)

Experiments:
[1] = molecular target: T1, ileum muscarine receptors (Cavia porcellus, UniProt H0W1Z3); assay: Antagonism on the acetylcholine-induced contraction of ileum (in vitro test); conditions: guinea pig ileum, Schild plot, acetylcholine 10^-9 M~3×10^-6 M, 28° C., read-out: pA2 Ileum (converted)
T1 construct: The ileum was removed to make a 1.5 to 2 cm preparation; from tissue; host or cells: isolated ileum of Hartley male guinea pig
T1 sequence (H0W1Z3 1-590): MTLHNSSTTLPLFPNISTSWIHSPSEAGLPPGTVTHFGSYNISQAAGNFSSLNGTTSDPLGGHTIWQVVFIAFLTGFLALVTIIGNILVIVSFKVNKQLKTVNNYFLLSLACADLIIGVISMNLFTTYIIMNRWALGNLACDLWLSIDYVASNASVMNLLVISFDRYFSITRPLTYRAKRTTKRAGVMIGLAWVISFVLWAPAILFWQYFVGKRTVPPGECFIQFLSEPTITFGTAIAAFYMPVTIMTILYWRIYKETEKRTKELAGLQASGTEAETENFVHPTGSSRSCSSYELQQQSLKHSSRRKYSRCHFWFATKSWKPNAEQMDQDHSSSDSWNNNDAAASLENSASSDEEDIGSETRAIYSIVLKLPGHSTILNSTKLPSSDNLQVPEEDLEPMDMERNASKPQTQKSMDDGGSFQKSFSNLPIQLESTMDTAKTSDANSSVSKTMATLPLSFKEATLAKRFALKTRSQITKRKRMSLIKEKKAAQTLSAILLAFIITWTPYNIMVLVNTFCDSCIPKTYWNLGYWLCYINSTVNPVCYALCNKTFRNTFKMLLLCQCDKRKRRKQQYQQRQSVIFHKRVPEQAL
Method: 1. Antagonism on the acetylcholine-induced contraction of ileum (in vitro test)
Hartley male guinea pig was killed by stunning and bleeding. The ileum was removed to make a 1.5 to 2 cm preparation. The preparation was mounted in a 10 ml organ bath filled with Tyrode's solution of 28° C. that was bubbled with 95% O2 /5% CO2. The initial resting tension of 1 g was applied to the preparation and measurement of isomeric muscle tension was recorded.
(§1) The action of testing drug is shown in terms of pA2 determined from Schild plot of the extent of right shift of the concentration-response curve on 10^-9 M~3×10^-6 M of acetylcholine.

[2] = molecular target: T2, sphincter muscle of the pupil (Oryctolagus cuniculus, UniProt G1U308); assay: Antagonism on the acetylcholine-induced contraction of pupil (in vitro test); conditions: rabbit sphincter muscle of the pupil, Schild plot, acetylcholine 10^-6 M~10^-2 M, 30° C., read-out: pA2 Pupil (converted)
T2 construct: The eyeball was removed to make a preparation of sphincter muscle of the pupil; from tissue; host or cells: isolated pupillary sphincter muscle of Japanese white male rabbit
T2 sequence (G1U308 entry or part of it): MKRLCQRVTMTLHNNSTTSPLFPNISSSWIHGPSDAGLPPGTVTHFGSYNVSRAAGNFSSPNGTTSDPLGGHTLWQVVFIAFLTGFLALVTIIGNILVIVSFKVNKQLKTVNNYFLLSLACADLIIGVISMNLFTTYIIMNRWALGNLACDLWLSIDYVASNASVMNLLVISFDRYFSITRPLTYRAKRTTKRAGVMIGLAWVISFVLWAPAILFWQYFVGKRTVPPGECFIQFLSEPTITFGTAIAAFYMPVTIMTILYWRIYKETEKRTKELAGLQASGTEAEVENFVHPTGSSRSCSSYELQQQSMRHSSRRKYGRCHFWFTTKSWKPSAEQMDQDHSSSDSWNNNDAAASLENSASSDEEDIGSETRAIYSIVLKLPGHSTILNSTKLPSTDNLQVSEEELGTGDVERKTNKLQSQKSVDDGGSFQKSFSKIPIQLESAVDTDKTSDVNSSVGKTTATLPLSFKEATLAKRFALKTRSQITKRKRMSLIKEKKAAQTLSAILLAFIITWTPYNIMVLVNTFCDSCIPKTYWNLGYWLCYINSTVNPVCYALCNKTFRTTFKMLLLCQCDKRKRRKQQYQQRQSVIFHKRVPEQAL
Method: 2. Antagonism on the acetylcholine-induced contraction of pupil (in vitro test)
Japanese white male rabbit was anesthetized using sodium pentobarbital and killed by bleeding. The eyeball was removed to make a preparation of sphincter muscle of the pupil. The preparation was mounted in a 10 ml organ bath filled with Krebs solution of 30° C. that was bubbled with 95% O2 /5% CO2. The initial resting tension of 0.2 g was applied to the preparation and measurement of isometric muscle tension was recorded.
The action of testing drug is shown in terms of pA2 determined from Schild plot of the extent of right shift of the concentration-response curve on 10^-6 M~10^-2 M of acetylcholine.

[3] = molecular target: T3, heart muscarine receptors (Cavia porcellus, UniProt H0VRN8); assay: Antagonism action on the acetylcholine-induced negative chronotropic action of atrium of heart (in vitro test); conditions: guinea pig atrium of heart, Schild plot, acetylcholine 10^-9 M~3×10^-6 M, 32° C., read-out: pA2 Atrium (converted)
T3 construct: The heart was removed to make a preparation of atrium of heart; from tissue; host or cells: isolated atrium of Hartley male guinea pig
T3 sequence (H0VRN8 1-466): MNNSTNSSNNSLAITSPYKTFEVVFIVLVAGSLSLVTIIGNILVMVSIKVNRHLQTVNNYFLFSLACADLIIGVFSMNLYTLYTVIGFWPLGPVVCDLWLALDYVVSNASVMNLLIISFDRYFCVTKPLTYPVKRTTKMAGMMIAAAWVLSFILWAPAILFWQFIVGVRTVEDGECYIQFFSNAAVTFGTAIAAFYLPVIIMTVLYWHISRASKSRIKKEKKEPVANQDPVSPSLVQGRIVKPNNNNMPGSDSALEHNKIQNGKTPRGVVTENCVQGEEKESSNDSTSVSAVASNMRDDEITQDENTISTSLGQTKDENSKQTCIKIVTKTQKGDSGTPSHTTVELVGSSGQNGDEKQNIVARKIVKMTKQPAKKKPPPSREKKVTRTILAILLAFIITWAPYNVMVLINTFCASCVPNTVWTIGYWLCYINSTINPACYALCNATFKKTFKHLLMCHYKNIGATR
Method: 3. Antagonism action on the acetylcholine-induced negative chronotropic action of atrium of heart (in vitro test)
Hartley male guinea pig was killed by stunning and bleeding. The heart was removed to make a preparation of atrium of heart. The preparation was mounted in a 10 ml organ bath filled with Krebs-Henseleit solution of 32° C. that was bubbled with 95% O2 /5% CO2. The initial resting tension was made to be 0.5 g and measurement of isometric muscle tension was recorded.
as §1

[4] = system: defecation model under restraint stress; assay: Inhibitory effect in the defecation model under restraint stress (in vivo test); parameters: species or system rat; conditions: Wistar male rats; 10 mg/kg orally, restraint stress 30 minutes later; defecation measured after 1 hour
Method: (§2) 4. Inhibitory effect in the defecation model under restraint stress (in vivo test)
(§3) Wistar strain male rats were employed. Testing drug was administered orally at 10 mg/kg and, after 30 minutes, the restraint stress was given by fixing the forefeet of rat on back side under anesthetization with ether. Moreover, the diameter of pupil (mm) was also measured.
(§4) After allowed to stand for 1 hour in separate cage, the defecation level and diameter of pupil were measured.
The inhibitory rate of defecation was determined from following formula.

[5] = system: pupil; assay: Diameter of pupil in the restraint stress model (in vivo test); parameters: species or system rat; conditions: Wistar male rats, 10 mg/kg orally
Method: as §2, §3, §4

Compound NC(=O)C(CCN1CCC(OCc2cccc(Cl)c2)C1)(c1ccccc1)c1ccccc1 (stereo not drawn) [Example 9, 4-[3-(3-chlorobenzyloxy)pyrrolidine-1-yl]-2,2-diphenylbutaneamide] has a Kb [1] of 25.1 nM, a Kb [2] of 50.1 nM and a Kb [3] of 631 nM. The “Inhibitory rate of defecation (%)” value [4] was 48.9%, the “Diameter of pupil (mm), Immediately after restraint” value ([5]; Control 0.44) was 0.43 mm and the “Diameter of pupil (mm), After restraint” value ([5]; after 1 hour, Control 0.48) was 0.45 mm.
